± gives the standard deviation of the averaged measurements.
Columns and labels:
Settings in all cases: 72 h
Vero E6 [1] = experiment: cell viability relative to DMSO; higher = less toxic
HepG2 [2] = experiment: as above
Caco-2 [3] = experiment: as above
U2OS [4] = experiment: as above
Vero E6 [5] = experiment: relative viability EC50 (midpoint between 100% and the lowest measured viability); higher = less toxic
HepG2 [6] = experiment: as above
Caco-2 [7] = experiment: as above
U2OS [8] = experiment: as above
Vero E6 [9] = experiment: drug sensitivity score (DSS) for viability; higher = more toxic; extreme values may be limits of the assay
HepG2 [10] = experiment: as above
Caco-2 [11] = experiment: as above
U2OS [12] = experiment: as above
Calu-3 [13] = experiment: cell viability relative to DMSO; higher = less toxic
Calu-3 [14] = experiment: relative viability EC50 (midpoint between 100% and the lowest measured viability); higher = less toxic
Calu-3 [15] = experiment: drug sensitivity score (DSS) for viability; higher = more toxic; extreme values may be limits of the assay

Structure (SMILES)	cell viability (Vero E6 [1]; 1 nM)	cell viability (Vero E6 [1]; 10 nM)	cell viability (Vero E6 [1]; 100 nM)	cell viability (Vero E6 [1]; 1000 nM)	cell viability (Vero E6 [1]; 10000 nM)	cell viability (HepG2 [2]; 1 nM)	cell viability (HepG2 [2]; 10 nM)	cell viability (HepG2 [2]; 100 nM)	cell viability (HepG2 [2]; 1000 nM)	cell viability (HepG2 [2]; 10000 nM)	cell viability (Caco-2 [3]; 1 nM)	cell viability (Caco-2 [3]; 10 nM)	cell viability (Caco-2 [3]; 100 nM)	cell viability (Caco-2 [3]; 1000 nM)	cell viability (Caco-2 [3]; 10000 nM)	cell viability (U2OS [4]; 1 nM)	cell viability (U2OS [4]; 10 nM)	cell viability (U2OS [4]; 100 nM)	cell viability (U2OS [4]; 1000 nM)	cell viability (U2OS [4]; 10000 nM)	relative viability EC50 (Vero E6 [5])	relative viability EC50 (HepG2 [6])	relative viability EC50 (Caco-2 [7])	relative viability EC50 (U2OS [8])	drug sensitivity score (Vero E6 [9])	drug sensitivity score (HepG2 [10])	drug sensitivity score (Caco-2 [11])	drug sensitivity score (U2OS [12])	cell viability (Calu-3 [13]; 1 nM)	cell viability (Calu-3 [13]; 10 nM)	cell viability (Calu-3 [13]; 100 nM)	cell viability (Calu-3 [13]; 1000 nM)	cell viability (Calu-3 [13]; 10000 nM)	relative viability EC50 (Calu-3 [14])	drug sensitivity score (Calu-3 [15])
CC1CCc2cc(F)cc3c(=O)c(C(=O)O)cn1c23 (stereo unspecified) [flumequine]	103%	94.7%	107%	108%	92.1%	95.3%	97.7%	89.4%	96.4%	92.7%	91%	75.1%	96.5%	112%	121%	98.1%	98.3%	102%	97.9%	104%	> 10000 nM	> 10000 nM	> 10000 nM	> 10000 nM	0	0	0	0	–	–	–	–	–	–	–
CC(=O)SCCC(=O)N1[C@H](C)CCC[C@@H]1C(=O)O [methiopril]	–	–	–	–	–	109%	99.3%	98.6%	96%	97.2%	96.1%	103%	93.8%	100%	89.6%	–	–	–	–	–	–	> 10000 nM	> 10000 nM	–	–	0	0	–	99.2%	99.6%	96.8%	97.5%	88.1%	> 10000 nM	0.1
COCCOC(=O)C1=C(C)NC(C)=C(C(=O)OC/C=C/c2ccccc2)C1c1cccc([N+](=O)[O-])c1 (stereo unspecified) [cilnidipine]	–	–	–	–	–	118%	104%	114%	104%	91.8%	91.1%	94.3%	94%	92.9%	67.7%	99.1%	103%	98.8%	104%	85%	–	> 10000 nM	–	> 10000 nM	–	0	2.5	0.1	99.2%	105%	93.3%	105%	95.2%	> 10000 nM	0
O=C(O)CCC(=O)C(=O)O [2-oxoglutaric-acid]	97.8%	104%	98.3%	104%	102%	97.9%	94.3%	91.4%	98.8%	105%	95.3%	97.7%	95%	94.2%	91.5%	98.5%	99.5%	95.2%	98.7%	99.3%	> 10000 nM	> 10000 nM	> 10000 nM	> 10000 nM	0	0	0	0	–	–	–	–	–	–	–
c1nc(CC2CCNCC2)c[nH]1 [immepip]	–	–	–	–	–	108%	107%	103%	111%	95.7%	113%	101%	98.6%	98.8%	102%	98.1%	99.8%	97.2%	93.3%	97.9%	–	> 10000 nM	> 10000 nM	> 10000 nM	–	0	0	0	96.7%	91.6%	111%	111%	99.9%	> 10000 nM	0
C/C(=N\Nc1nnc2c(n1)[nH]c1c(C)cccc12)c1ccccn1 [VLX600]	101 ± 6%	100.5 ± 0.49%	104 ± 2.5%	21.6 ± 15%	4.95 ± 1.2%	102 ± 2.3%	107 ± 10%	103 ± 11%	17.9 ± 6%	23.6 ± 1.6%	95.5 ± 6%	101 ± 1.6%	98.1 ± 4.1%	20.2 ± 5.8%	21 ± 2.1%	100 ± 3.2%	99.6 ± 9.3%	98.9%	34.3 ± 6.7%	27 ± 0.99%	525 nM	319 nM	320 nM	418 nM	14.6 ± 2.2	14.85 ± 0.071	14.8 ± 0.35	12.2 ± 1.3	–	–	–	–	–	–	–
O=C(NOCC(O)CO)c1cc(Br)c(F)c(F)c1Nc1ccc(I)cc1F (stereo unspecified)	93.8%	88.6%	76.7%	55.2%	51.3%	99.5%	97.9%	46.1%	25.7%	21.3%	102%	92.3%	73.3%	69.5%	68.7%	103%	94.7%	92.7%	97.6%	67.8%	–	64.5 nM	–	–	11.1	20.9	9.1	1.8	94.8%	81.8%	73.3%	62.1%	43.2%	102 nM	11.8
Cc1cc(C)cc(C(=O)NOCCCCCC(=O)NO)c1 [LMK-235]	95.3%	102%	96.1%	39.8%	-0.1%	95.1%	93.3%	79.4%	34.4%	0.3%	107%	86.9%	96.4%	60.3%	0.9%	95.9%	91.3%	90.4%	49.3%	1.9%	777 nM	441 nM	1220 nM	884 nM	12.7	15.1	10.4	11.6	–	–	–	–	–	–	–
CCCCCCNC(=O)n1cc(F)c(=O)[nH]c1=O [carmofur]	106%	102%	102%	97.4%	58.8%	100%	98.3%	101%	76.4%	42.5%	107%	98.5%	95%	97.8%	61.7%	98.7%	103%	98.5%	99.5%	54%	–	1160 nM	–	–	2.4	6.3	2.2	2.4	95.4%	93.1%	90%	94.8%	83.7%	> 10000 nM	0.4
CCCCCCNC(=O)n1cc(F)c(=O)[nH]c1=O [Carmofur]	104%	99.4%	102%	102%	67.1%	108%	104%	102%	85.5%	63.6%	106%	92%	94.1%	91.7%	74.1%	103%	96.5%	102%	94.8%	55.9%	–	–	–	–	1.4	3.7	1.5	3.1	89.8%	102%	100%	101%	93.8%	> 10000 nM	0
CN(c1ccccc1CNc1nc(Nc2ccc3c(c2)CC(=O)N3)ncc1C(F)(F)F)S(C)(=O)=O	97%	88.8%	81.2%	65.4%	10.3%	92.8%	89.9%	92.9%	51.5%	7.2%	92.4%	91.6%	91.5%	83.8%	33.6%	98.2%	102%	94.3%	76.1%	0.2%	1070 nM	895 nM	1610 nM	1580 nM	9.6	10.9	6	9.2	–	–	–	–	–	–	–
C/C(=C\c1csc(C)n1)[C@@H]1C[C@@H]2O[C@]2(C)CCC[C@H](C)[C@H](O)[C@@H](C)C(=O)C(C)(C)[C@@H](O)CC(=O)N1 [ixabepilone]	108%	108%	84.6%	60.2%	36.5%	107%	103%	43.6%	33.6%	17.3%	101%	98.4%	65.2%	48.8%	49.2%	99.7%	99.3%	101%	41.3%	28%	493 nM	72.1 nM	66.4 nM	556 nM	9.1	21.7	13.6	10.9	108%	108%	88.1%	67.2%	60.8%	–	7.2
CCOC(=O)c1ccc(NC2CCCCC2)c(N)c1 [ferrostatin-1]	97.6%	101%	94.3%	95.1%	100%	94%	108%	97.8%	97%	113%	99.8%	99.9%	102%	102%	86.1%	97.5%	96.6%	98.6%	98.9%	96.6%	> 10000 nM	> 10000 nM	> 10000 nM	> 10000 nM	0	0	0.1	0	–	–	–	–	–	–	–
COc1ccc(S(=O)(=O)Nc2cccnc2Nc2ccc(O)cc2)cc1 [ABT-751]	102%	98.9%	93.3%	29.8%	27.9%	101%	108%	105%	45.1%	35.2%	100%	89.6%	86.3%	53.7%	42.4%	103%	99.4%	104%	57.5%	26.4%	248 nM	522 nM	260 nM	884 nM	14.2	10	10.1	9.2	108%	87.3%	94%	69.4%	55.8%	–	6.2
CC1(C)CCC(C)(C)c2cc(NC(=O)c3ccc(C(=O)O)cc3)ccc21 [tamibarotene]	101%	101%	100%	91.6%	96.5%	110%	98.7%	114%	109%	108%	98%	100%	95.4%	98.8%	83.8%	99%	96.1%	90.6%	91.4%	87.7%	> 10000 nM	> 10000 nM	> 10000 nM	> 10000 nM	0	0	0.4	0.3	95.4%	83.6%	73.5%	67.8%	70.1%	–	10.1
